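The concentration for 50% growth inhibition is given as GI50. The concentration for full growth arrest is given as TGI.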
Legend:
Assay in all cases: NCI-60 cell line screen, 384-well format
RPMI-8226 leukemia = test system: RPMI-8226 leukemia
MDA-MB-435 melanoma = test system: MDA-MB-435 melanoma
DU-145 prostate = test system: DU-145 prostate
M14 melanoma = test system: M14 melanoma
HCT-15 colon = test system: HCT-15 colon
OVCAR-3 ovarian = test system: OVCAR-3 ovarian
HOP-92 NSCLC = test system: HOP-92 NSCLC
UACC-257 melanoma = test system: UACC-257 melanoma
UACC-62 melanoma = test system: UACC-62 melanoma
RXF 393 renal = test system: RXF 393 renal
MALME-3M melanoma = test system: MALME-3M melanoma
HCC-2998 colon = test system: HCC-2998 colon
HCT-116 colon = test system: HCT-116 colon
ACHN renal = test system: ACHN renal
A549 NSCLC = test system: A549 NSCLC
MOLT-4 leukemia = test system: MOLT-4 leukemia
SK-MEL-28 melanoma = test system: SK-MEL-28 melanoma
NCI-H226 lung = test system: NCI-H226 lung
COLO 205 colon = test system: COLO 205 colon
SN12C renal = test system: SN12C renal
PC-3 prostate = test system: PC-3 prostate
TK-10 renal = test system: TK-10 renal
LOX IMVI melanoma = test system: LOX IMVI melanoma
SNB-19 CNS = test system: SNB-19 CNS
SK-MEL-2 melanoma = test system: SK-MEL-2 melanoma
NCI-H522 lung = test system: NCI-H522 lung
UO-31 renal = test system: UO-31 renal
HL-60(TB) leukemia = test system: HL-60(TB) leukemia
SF-295 CNS = test system: SF-295 CNS
KM12 colon = test system: KM12 colon
786-0 renal = test system: 786-0 renal
HOP-62 NSCLC = test system: HOP-62 NSCLC
SNB-75 CNS = test system: SNB-75 CNS
HS 578T breast = test system: HS 578T breast
T-47D breast = test system: T-47D breast
OVCAR-4 ovarian = test system: OVCAR-4 ovarian
NCI-H322M lung = test system: NCI-H322M lung
CCRF-CEM leukemia = test system: CCRF-CEM leukemia
HT29 colon = test system: HT29 colon
NCI-H460 NSCLC = test system: NCI-H460 NSCLC
A498 renal = test system: A498 renal
SF-539 CNS = test system: SF-539 CNS
SR leukemia = test system: SR leukemia
OVCAR-8 ovarian = test system: OVCAR-8 ovarian
EKVX NSCLC = test system: EKVX NSCLC
BT-549 breast = test system: BT-549 breast
OVCAR-5 ovarian = test system: OVCAR-5 ovarian
SW-620 colon = test system: SW-620 colon
SK-MEL-5 melanoma = test system: SK-MEL-5 melanoma
MDA-MB-231 breast = test system: MDA-MB-231 breast
K-562 leukemia = test system: K-562 leukemia
U251 glioblastoma = test system: U251 glioblastoma
CAKI-1 renal = test system: CAKI-1 renal
MDA-MB-468 breast = test system: MDA-MB-468 breast
SK-OV-3 ovarian = test system: SK-OV-3 ovarian
IGROV1 ovarian = test system: IGROV1 ovarian
SF-268 CNS = test system: SF-268 CNS
NCI/ADR-RES ovarian = test system: NCI/ADR-RES ovarian
MCF7 breast = test system: MCF7 breast
NCI-H23 lung = test system: NCI-H23 lung

Cc1[nH]nc(C(F)(F)F)c1Cc1sc2c(c1C(=O)N1C[C@](C)(O)CO1)c(=O)n(C)c(=O)n2C(C)C
GI50 (RPMI-8226 leukemia): 20.9 µM | TGI (RPMI-8226 leukemia): > 86 µM | GI50 (MDA-MB-435 melanoma): > 69 µM | TGI (MDA-MB-435 melanoma): > 100 µM | GI50 (DU-145 prostate): > 30.5 µM | TGI (DU-145 prostate): > 100 µM | GI50 (M14 melanoma): > 33.7 µM | TGI (M14 melanoma): > 100 µM | GI50 (HCT-15 colon): 12.2 µM | TGI (HCT-15 colon): > 100 µM | GI50 (OVCAR-3 ovarian): > 29.3 µM | TGI (OVCAR-3 ovarian): > 100 µM | GI50 (HOP-92 NSCLC): > 100 µM | TGI (HOP-92 NSCLC): > 100 µM | GI50 (UACC-257 melanoma): > 100 µM | TGI (UACC-257 melanoma): > 100 µM | TGI (UACC-62 melanoma): > 100 µM | GI50 (RXF 393 renal): > 27.3 µM | TGI (RXF 393 renal): > 100 µM | GI50 (MALME-3M melanoma): > 77.9 µM | TGI (MALME-3M melanoma): > 100 µM | GI50 (HCC-2998 colon): > 100 µM | TGI (HCC-2998 colon): > 100 µM | GI50 (HCT-116 colon): > 24.5 µM | TGI (HCT-116 colon): > 100 µM | GI50 (ACHN renal): > 33.1 µM | TGI (ACHN renal): > 100 µM | GI50 (A549 NSCLC): > 21.2 µM | TGI (A549 NSCLC): > 100 µM | GI50 (MOLT-4 leukemia): 0.0847 µM | GI50 (SK-MEL-28 melanoma): > 100 µM | TGI (SK-MEL-28 melanoma): > 100 µM | GI50 (NCI-H226 lung): > 100 µM | TGI (NCI-H226 lung): > 100 µM | GI50 (COLO 205 colon): > 21.8 µM | TGI (COLO 205 colon): > 100 µM | GI50 (SN12C renal): > 100 µM | TGI (SN12C renal): > 100 µM | GI50 (PC-3 prostate): > 100 µM | TGI (PC-3 prostate): > 100 µM | GI50 (TK-10 renal): > 100 µM | TGI (TK-10 renal): > 100 µM | TGI (LOX IMVI melanoma): > 100 µM | GI50 (SNB-19 CNS): > 100 µM | TGI (SNB-19 CNS): > 100 µM | GI50 (SK-MEL-2 melanoma): 39.1 µM | TGI (SK-MEL-2 melanoma): > 100 µM | GI50 (NCI-H522 lung): 2.15 µM | TGI (NCI-H522 lung): 18.3 µM | GI50 (UO-31 renal): 12.9 µM | TGI (UO-31 renal): > 100 µM | TGI (HL-60(TB) leukemia): > 29.8 µM | GI50 (SF-295 CNS): > 100 µM | TGI (SF-295 CNS): > 100 µM | GI50 (KM12 colon): > 31.6 µM | TGI (KM12 colon): > 100 µM | GI50 ([…]-0 renal): > 26.9 µM | TGI (786-0 renal): > 100 µM | GI50 (HOP-62 NSCLC): > 27.3 µM | TGI (HOP-62 NSCLC): > 100 µM | GI50 (SNB-75 CNS): > 41.9 µM | TGI (SNB-75 CNS): > 100 µM | GI50 (HS 578T breast): 8.39 µM | TGI (HS 578T breast): > 100 µM | GI50 (T-47D breast): > 100 µM | TGI (T-47D breast): > 100 µM | GI50 (OVCAR-4 ovarian): > 100 µM | TGI (OVCAR-4 ovarian): > 100 µM | GI50 (NCI-H322M lung): > 100 µM | TGI (NCI-H322M lung): > 100 µM | GI50 (CCRF-CEM leukemia): 0.779 µM | GI50 (HT29 colon): > 39.6 µM | TGI (HT29 colon): > 100 µM | TGI (NCI-H460 NSCLC): > 100 µM | GI50 (A498 renal): > 100 µM | TGI (A498 renal): > 100 µM | GI50 (SF-539 CNS): > 27 µM | TGI (SF-539 CNS): > 100 µM | GI50 (SR leukemia): > 100 µM | TGI (SR leukemia): > 100 µM | GI50 (OVCAR-8 ovarian): > 22.8 µM | TGI (OVCAR-8 ovarian): > 100 µM | GI50 (EKVX NSCLC): > 100 µM | TGI (EKVX NSCLC): > 100 µM | GI50 (BT-549 breast): > 57 µM | TGI (BT-549 breast): > 100 µM | GI50 (OVCAR-5 ovarian): > 78.6 µM | TGI (OVCAR-5 ovarian): > 100 µM | GI50 (SW-620 colon): > 24.4 µM | TGI (SW-620 colon): > 100 µM | TGI (SK-MEL-5 melanoma): > 100 µM | GI50 (MDA-MB-231 breast): > 100 µM | TGI (MDA-MB-231 breast): > 100 µM | TGI (K-562 leukemia): > 100 µM | GI50 (U251 glioblastoma): > 25 µM | TGI (U251 glioblastoma): > 100 µM | GI50 (CAKI-1 renal): > 47.6 µM | TGI (CAKI-1 renal): > 80 µM | GI50 (MDA-MB-468 breast): 4.75 µM | TGI (MDA-MB-468 breast): 66.4 µM | GI50 (SK-OV-3 ovarian): > 100 µM | TGI (SK-OV-3 ovarian): > 100 µM | GI50 (IGROV1 ovarian): > 100 µM | TGI (IGROV1 ovarian): > 100 µM | TGI (SF-268 CNS): > 29.6 µM | GI50 (NCI/ADR-RES ovarian): > 58.7 µM | TGI (NCI/ADR-RES ovarian): > 100 µM | GI50 (MCF7 breast): > 82.5 µM | TGI (MCF7 breast): > 100 µM | GI50 (NCI-H23 lung): > 27.1 µM | TGI (NCI-H23 lung): > 100 µM
